Data set [1] relates to C57BL/6J mice. In words: Oral glucose tolerance test (OGTT). The data set is classed as in vivo. As to conditions: 3 nmol/kg s.c., 24 hours before glucose loading. In a few lines:
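Peptide or vehicle given s.c. at 0.1, 0.3, 3 or 10 nmol/kg (peptide-dependent), 24 h before oral 50% dextrose at 5 ml/kg unless stated otherwise. Blood glucose read at 0, 15, 30 and 60 min. % inhibition = (1−(AUC cpd−AUC naïve)/(AUC veh−AUC naïve))×100.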

The target in data set [2] is T1, human GLP-1R (Homo sapiens, UniProt P43220).
T1 construct: HEK-293T cells overexpressing full-length human GLP-1R; FLAG (N); host or cells: HEK-293T
Kind of data set: Human GLP1R agonist activity, intracellular cAMP accumulation. The data set is classed as cell-based. Particulars: HEK-293T cells overexpressing human GLP-1R, 1 hr. The method in brief: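 Frozen assay-ready cells washed and resuspended at 4×10^5 cells/mL in Krebs Ringer buffer, then incubated with compound 1 hr at room temperature in the dark. cAMP read by HTRF (anti-cAMP antibody, d2-cAMP tracer). Normalised to 1 nm GLP-1 (100%) and DMSO (0%).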
A general note: Cyclic AMP is a second messenger, typically raised through Gs and lowered through Gi signalling.

Data set [3] in a line: physchem. In a few lines: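 3 mg of peptide treated with 100 μL portions of 200 mM phosphate buffer pH 7.4, sonicating/vortexing up to 1 min, with further buffer added until fully dissolved. Solubility then quantified by HPLC.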
Where [4] appears, read: read-out: Human GLP1R cAMP EC50, HEK293T.

These results are taken from patent US20230143604A1, “QW DOSING OF GIP RECEPTOR AGONIST PEPTIDE COMPOUNDS AND USES THEREOF” (TAKEDA PHARMACEUTICAL COMPANY LIMITED, priority 2020, published 2023).

As usually defined, the EC50 is the concentration that produces a half-maximal response. In general, solubility refers to the dissolved amount per volume that the medium holds. Low values mean little dissolved substance, high ones much dissolved substance.

Read-outs that look alike come from different tables or passages of the source. Positions of bridges follow the written chain, without caps; N, C: chain ends. Non-standard residues stand in square brackets, D forms with d. Chains are numbered I, II in the order given. *: point of attachment. C18 diacid = O=C(O)CCCCCCCCCCCCCCCCC(=O)*; NMeY = CN[C@@H](Cc1ccc(O)cc1)C(=O)O; Aib = CC(C)(N)C(=O)O

T1 sequence (P43220 24-463): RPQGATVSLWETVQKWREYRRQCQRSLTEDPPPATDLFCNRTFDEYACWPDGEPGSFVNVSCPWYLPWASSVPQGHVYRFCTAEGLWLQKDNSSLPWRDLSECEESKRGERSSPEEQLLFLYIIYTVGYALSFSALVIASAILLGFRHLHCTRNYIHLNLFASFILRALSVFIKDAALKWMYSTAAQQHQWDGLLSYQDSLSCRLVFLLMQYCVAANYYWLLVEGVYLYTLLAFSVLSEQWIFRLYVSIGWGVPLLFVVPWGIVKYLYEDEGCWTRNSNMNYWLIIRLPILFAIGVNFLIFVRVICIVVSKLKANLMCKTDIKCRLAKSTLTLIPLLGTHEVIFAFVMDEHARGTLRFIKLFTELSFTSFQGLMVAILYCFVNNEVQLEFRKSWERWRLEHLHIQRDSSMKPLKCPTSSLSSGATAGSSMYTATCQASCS

Turning to `CC[C@H](C)[C@H](NC(=O)[C@H](CO)NC(=O)[C@H](Cc1ccc(O)cc1)NC(=O)[C@H](CC(=O)O)NC(=O)[C@H](CO)NC(=O)[C@@H](NC(=O)[C@H](Cc1ccccc1)NC(=O)[C@@H](NC(=O)CNC(=O)[C@H](CCC(=O)O)NC(=O)C(C)(C)NC(=O)[C@H](Cc1ccc(O)cc1)NC)[C@@H](C)O)[C@@H](C)CC)C(=O)N[C@@H](C)C(=O)N[C@@H](CCCCNC(=O)CNC(=O)CNC(=O)CNC(=O)CNC(=O)CNC(=O)CCCCCCCCCCCCCCCCC(=O)O)C(=O)N[C@@H](CC(=O)O)C(=O)N[C@@H](CCCNC(=N)N)C(=O)NC(C)(C)C(=O)N[C@@H](C)C(=O)N[C@@H](CCC(N)=O)C(=O)NC(C)(C)C(=O)N[C@@H](CC(N)=O)C(=O)N[C@@H](Cc1ccccc1)C(=O)N[C@H](C(=O)N[C@@H](CC(N)=O)C(=O)N[C@@H](Cc1c[nH]c2ccccc12)C(=O)N[C@@H](CC(C)C)C(=O)N[C@@H](CC(C)C)C(=O)N[C@@H](C)C(=O)N[C@@H](CCC(N)=O)C(=O)N[C@@H](CO)C(=O)N1CCC[C@H]1C(=O)NCC(=O)O)C(C)C` [Compound 114], in data set [1], the “Oral Glucose Tolerance Test Percent decrease in blood glucose AUC (%) over 60 mins” value was 50% (3 nmol/kg). Moreover, the EC50 in data set [2] (setting [4]) came out at 11.7 nM. The solubility in data set [3] (pH 7.4) is no less than 15 mg/mL; in data set [3] (pH 7.4, aqueous buffer), no less than 30 mg/mL.

`CC[C@H](C)[C@H](NC(=O)[C@H](CO)NC(=O)[C@H](Cc1ccc(O)cc1)NC(=O)[C@H](CC(=O)O)NC(=O)[C@H](CO)NC(=O)[C@@H](NC(=O)[C@H](Cc1ccccc1)NC(=O)[C@@H](NC(=O)CNC(=O)[C@H](CCC(=O)O)NC(=O)C(C)(C)NC(=O)[C@H](Cc1ccc(O)cc1)NC)[C@@H](C)O)[C@@H](C)CC)C(=O)N[C@@H](C)C(=O)N[C@@H](CC(C)C)C(=O)N[C@@H](CC(=O)O)C(=O)N[C@@H](CCCNC(=N)N)C(=O)N[C@@H](CCCCNC(=O)CNC(=O)CNC(=O)CNC(=O)CNC(=O)CNC(=O)CCCCCCCCCCCCCCCCC(=O)O)C(=O)N[C@@H](C)C(=O)N[C@@H](CCC(N)=O)C(=O)NC(C)(C)C(=O)N[C@@H](CC(=O)O)C(=O)N[C@@H](Cc1ccccc1)C(=O)N[C@H](C(=O)N[C@@H](CCC(=O)O)C(=O)N[C@@H](Cc1c[nH]c2ccccc12)C(=O)N[C@@H](CC(C)C)C(=O)N[C@@H](CC(C)C)C(=O)N[C@@H](C)C(=O)N[C@@H](CCC(N)=O)C(=O)N[C@@H](CCCNC(=N)N)C(=O)NCC(=O)O)C(C)C` [Compound 115]: the “Oral Glucose Tolerance Test Percent decrease in blood glucose AUC (%) over 60 mins” value in data set [1] is given as 40% (3 nmol/kg). The EC50 in data set [2] (setting [4]) is 40.7 nM. In addition, the solubility in data set [3] (pH 7.4) was no less than 15 mg/mL; in data set [3] (pH 7.4, aqueous buffer) it was no less than 30 mg/mL.

For `CC[C@H](C)[C@H](NC(=O)[C@H](Cc1ccccc1)NC(=O)[C@@H](NC(=O)CNC(=O)[C@H](CCC(=O)O)NC(=O)C(C)(C)NC(=O)[C@@H](N)Cc1ccc(O)cc1)[C@@H](C)O)C(=O)N[C@@H](CO)C(=O)N[C@@H](CC(=O)O)C(=O)N[C@@H](Cc1ccc(O)cc1)C(=O)N[C@@H](CO)C(=O)N[C@H](C(=O)NC(C)(C)C(=O)N[C@@H](CCCCNC(=O)CNC(=O)CNC(=O)CNC(=O)CNC(=O)CNC(=O)CCCCCCCCCCCCCCCCC(=O)O)C(=O)N[C@@H](CC(=O)O)C(=O)N[C@@H](CCCNC(=N)N)C(=O)NC(C)(C)C(=O)N[C@@H](C)C(=O)N[C@@H](CCC(N)=O)C(=O)NC(C)(C)C(=O)N[C@@H](CC(=O)O)C(=O)N[C@@H](Cc1ccccc1)C(=O)N[C@H](C(=O)N[C@@H](CCC(=O)O)C(=O)N[C@@H](Cc1c[nH]c2ccccc12)C(=O)N[C@@H](CC(C)C)C(=O)N[C@@H](CC(C)C)C(=O)N[C@@H](C)C(=O)N[C@@H](CCC(N)=O)C(=O)N[C@@H](CCCNC(=N)N)C(=O)NCC(=O)O)C(C)C)[C@@H](C)CC` [Compound 139], the “Oral Glucose Tolerance Test Percent decrease in blood glucose AUC (%) over 60 mins” value in data set [1] is recorded as 93% (3 nmol/kg). In data set [2] (setting [4]), the half-maximal effective concentration (EC50) worked out at 8.91 nM. For the same compound, the solubility in data set [3] (pH 7.4) is no less than 15 mg/mL; in data set [3] (pH 7.4, aqueous buffer), no less than 30 mg/mL.

With `CC[C@H](C)[C@H](NC(=O)[C@H](Cc1ccccc1)NC(=O)[C@@H](NC(=O)CNC(=O)[C@H](CCC(=O)O)NC(=O)C(C)(C)NC(=O)[C@@H](N)Cc1ccc(O)cc1)[C@@H](C)O)C(=O)N[C@@H](CO)C(=O)N[C@@H](CC(=O)O)C(=O)N[C@@H](Cc1ccc(O)cc1)C(=O)N[C@@H](CO)C(=O)N[C@H](C(=O)NC(C)(C)C(=O)N[C@@H](CCCCNC(=O)CNC(=O)CNC(=O)CNC(=O)CNC(=O)CNC(=O)CCCCCCCCCCCCCCCCC(=O)O)C(=O)N[C@@H](CC(=O)O)C(=O)N[C@@H](CCCNC(=N)N)C(=O)N[C@@H](C)C(=O)N[C@@H](C)C(=O)N[C@@H](CCC(N)=O)C(=O)NC(C)(C)C(=O)N[C@@H](CC(=O)O)C(=O)N[C@@H](Cc1ccccc1)C(=O)N[C@H](C(=O)N[C@@H](CCC(=O)O)C(=O)N[C@@H](Cc1c[nH]c2ccccc12)C(=O)N[C@@H](CC(C)C)C(=O)N[C@@H](CC(C)C)C(=O)N[C@@H](C)C(=O)N[C@@H](CCC(N)=O)C(=O)N[C@@H](CCCNC(=N)N)C(=O)NCC(=O)O)C(C)C)[C@@H](C)CC` [Compound 145], the “Oral Glucose Tolerance Test Percent decrease in blood glucose AUC (%) over 60 mins” value in data set [1] is on record as 52% (3 nmol/kg). For the same compound, the EC50 in data set [2] (setting [4]) worked out at 9.33 nM. The solubility in data set [3] (pH 7.4) was no less than 15 mg/mL; in data set [3] (pH 7.4, aqueous buffer), no less than 30 mg/mL.

In the case of `CC[C@H](C)[C@H](NC(=O)[C@H](CO)NC(=O)[C@H](Cc1ccc(O)cc1)NC(=O)[C@H](CC(=O)O)NC(=O)[C@H](CO)NC(=O)[C@@H](NC(=O)[C@H](Cc1ccccc1)NC(=O)[C@@H](NC(=O)CNC(=O)[C@H](CCC(=O)O)NC(=O)C(C)(C)NC(=O)[C@@H](N)Cc1ccc(O)cc1)[C@@H](C)O)[C@@H](C)CC)C(=O)N[C@@H](C)C(=O)N[C@@H](CCCCNC(=O)CNC(=O)CNC(=O)CNC(=O)CNC(=O)CNC(=O)CCCCCCCCCCCCCCCCC(=O)O)C(=O)N[C@@H](CC(=O)O)C(=O)N[C@@H](CCCNC(=N)N)C(=O)NC(C)(C)C(=O)N[C@@H](C)C(=O)N[C@@H](CCC(N)=O)C(=O)N[C@@H](C)C(=O)N[C@@H](CC(=O)O)C(=O)N[C@@H](Cc1ccccc1)C(=O)N[C@H](C(=O)N[C@@H](CCC(=O)O)C(=O)N[C@@H](Cc1c[nH]c2ccccc12)C(=O)N[C@@H](CC(C)C)C(=O)N[C@@H](CC(C)C)C(=O)N[C@@H](C)C(=O)N[C@@H](CCC(N)=O)C(=O)N[C@@H](CCCNC(=N)N)C(=O)NCC(=O)O)C(C)C` [Compound 149], in data set [1], the “Oral Glucose Tolerance Test Percent decrease in blood glucose AUC (%) over 60 mins” value is reported as 13% (3 nmol/kg). For the same compound, the EC50 in data set [2] (setting [4]) worked out at 15.8 nM. Besides, the solubility in data set [3] (pH 7.4) is no less than 15 mg/mL; in data set [3] (pH 7.4, aqueous buffer) it was no less than 30 mg/mL.

As to “I: H-[NMeY][Aib]EGTFISDYSIAKDR[Aib]AQ[Aib]DFVNWLLAQSPSSGAPPPS-OH / II: {C18 diacid}-PAPAPGG (amide I:14-II:C) [Compound 105]”, the “Oral Glucose Tolerance Test Percent decrease in blood glucose AUC (%) over 60 mins” value in data set [1] is listed as 82% (3 nmol/kg). This compound yielded an EC50 in data set [2] (Human GLP1R cAMP EC50, HEK293T (nM)) of 562 nM. Further, the solubility in data set [3] (pH 7.4, aqueous buffer, pH 7.4 Phosphate Buffer - Solubility, 200 mM Phosphate buffer pH 7.4) is no less than 60 mg/mL; in data set [3] (pH 7.4, solubility in phosphate buffer at pH 7.4, 200 mM phosphate buffer pH 7.4), no less than 15 mg/mL.
